Data from US20130183239A1, “ISOTOPIC CARBON CHOLINE ANALOGS” (IMPERIAL COLLEGE, priority 2010, published 2013).
Entries after “also recorded” stand apart in the source; their conditions may differ.

Tests used:
choline kinase A (CHKA) = assay: Western blot of choline kinase A expression in HCT116 tumors after PD0325901; assay type: in vivo, human; settings: HCT116 tumors at day 10, western blot
Experimental: HCT116 tumors from mice that were injected with PD0325901 (25 mg/kg daily for 10 days, orally) or vehicle were analyzed for CHKA expression by western blotting. β-actin was used as the loading control. (b) Summary densitometer measurements for CHKA expression expressed as a ratio to β-actin. The results are the mean ratios±SE; n=3, * P=0.05.
(§1) Size-matched HCT116 tumor bearing mice were randomized to receive daily treatment by oral gavage of vehicle (0.5% hydroxypropyl methylcellulose+0.2% Tween 80) or 25 mg/kg (0.005 mL/g mouse) of the mitogenic extracellular kinase inhibitor, PD0325901, prepared in vehicle. [^18F]D4-FCH-PET scanning was done after 10 daily treatments with the last dose administered 1 h before scanning. […] The results are illustrated in FIGS. 18 and 19.
To understand further the mechanisms regulating [^18F]D4-FCH uptake with drug treatment, changes in CHKA expression in PD0325901 and vehicle-treated tumors excised after PET scanning were assessed.

CHKA = CHKA expression in exponentially growing cells treated with PD0325901; assay type: cell-based
HCT116 cells = assay: [18F]D4-FCH-phosphocholine formation in HCT116 cells treated with PD0325901; assay type: cell-based, human; settings: PD0325901 1 μM for 24 h, 60-min uptake
Experimental: HCT116 cells were grown in T150 flasks in triplicate until they were 70% confluent and then treated with vehicle (1% DMSO in growth medium) or 1 μmol/L PD0325901 in vehicle for 24 h. Cells were pulsed for 1 h with 1.1 MBq of either […]D4—FCH or [^18F]FCH. The cells were washed three times in ice-cold phosphate buffered saline (PBS), scraped into 5 mL PBS, and centrifuged at 500×g for 3 min and then resuspended in 2 mL ice-cold methanol for HPLC analysis as described above for tissue samples. […] Briefly, HCT116 cells were grown in 100 mm dishes in triplicate and incubated with 5.0 MBq [^18F]FCH for 60 min at 37° C. to form the putative [^18F]FCH-phosphate. The cells were washed with 5 mL ice-cold PBS twice and then scraped and centrifuged at 750×g (4° C., 3 min) in 5 mL PBS. Cells were homogenized in 1 mL of 5 mmol/L Tris-HCl (pH 7.4) containing 50% (v/v) glycerol, 0.5 mmol/L MgCl2, and 0.5 mmol/L ZnCl2 and incubated with 10 units bacterial (type III) alkaline phosphatase (Sigma) at 37° C. in a shaking water bath for 30 min to dephosphorylate the [^18F]FCH-phosphate. The reaction was terminated by adding ice-cold methanol. Samples were processed as per plasma above and analyzed by radio-HPLC. Control experiments were done without alkaline phosphatase. […]

HCT116 tumors = assay: PD0325901 treatment of HCT116 tumor-bearing mice with [18F]D4-FCH-PET; assay type: in vivo
Experimental: as §1
These studies were performed in a reproducible tumor model system in which treatment outcomes had been previously characterized, i.e., the human colon carcinoma xenograft HCT116 treated with PD0325901 daily for 10 days (Leyton, J., et al., “Noninvasive imaging of cell proliferation following mitogenic extracellular kinase inhibition by PD0325901”, Mol Cancer Ther 2008; 7(9):3112-21). […] All imaging variables decreased after 10 days of drug treatment (P=0.05, FIG. 18). […] To understand the biomarker changes, the intrinsic cellular effect of PD0325901 on D4-FCH-phosphocholine formation was examined by treating exponentially growing HCT116 cells in culture with PD0325901 for 24 h and measuring the 60-min uptake of [^18F]D4-FCH in vitro.

[1] = mouse, in vivo
Experimental: Metabolite analysis of tissues including liver, kidney and tumor by HPLC was also accomplished. […] Choline and its metabolites lack any UV chromophore to permit presentation of chromatograms of the cold unlabelled compound simultaneously with the radioactivity chromatograms.
Liver, kidney, and tumor samples were obtained at 30 min. All samples were snap-frozen in liquid nitrogen. For analysis, samples were thawed and kept at 4° C. immediately before use. To ˜0.2 mL plasma was added ice-cold methanol (1.5 mL). The mixture was then centrifuged (3 min, 15,493×g, 4jC). The supernatant was evaporated to dryness using a rotary evaporator (Heidoloph Instruments) at a bath temperature of 40° C. The residue was suspended in mobile phase (1.1 mL), clarified (0.2 Am filter), and analyzed by HPLC. Liver, kidney, and tumor samples were homogenized in ice-cold methanol (1.5 mL) using an IKA Ultra-Turrax T-25 homogenizer and subsequently treated as per plasma samples (above). All samples were analyzed by radio-HPLC on an Agilent 1100 series HPLC system (Agilent Technologies) equipped with a γ-RAM Model 3 γ-detector (IN/US Systems) and Laura 3 software (Lablogic). The stationary phase comprised a Waters μBondapak C18 reverse-phase column (300×7.8 mm) (Waters, Milford, Mass., USA). Samples were analyzed using a mobile phase comprising solvent A (acetonitrile/water/ethanol/acetic acid/1.0 mol/L ammonium acetate/0.1 mol/L sodium phosphate; 800/127/68/2/3/10) and solvent B (acetonitrile/water/ethanol/acetic acid/1.0 mol/L ammonium acetate/0.1 mol/L sodiumphosphate; 400/400/68/44/88/10) with a gradient of 0% B for 6 min, then 0→100% B in 10 min, 100% B for 0.5 min, 100→0% B in 1.5 min then 0% B for 2 min, delivered at a flow rate of 3 mL/min.

[2] = Potassium permanganate oxidation study; assay type: physicochemical; settings: 1 hour post-treatment with potassium permanganate, room temperature, radio-HPLC
Excerpt: Reagents and Conditions: i) KMnO4, Na2CO3, H2O, rt.

choline oxidase = settings: 60 min, 1.76 MBq/mL, pH 7
[3] = mouse, in vivo, 60 min
Experimental: (§2) Dynamic [^18F]FCH and [^18F]D4-FCH imaging scans were carried out on a dedicated small animal PET scanner, quad-HIDAC (Oxford Positron Systems). The features of this instrument have been described previously (Barthel, H., et al., Cancer Res 2003; 63(13):3791-8). For scanning the tail veins, vehicle- or drug-treated mice were cannulated after induction of anesthesia (isofluorane/O2/N2O). The animals were placed within a thermostatically controlled jig (calibrated to provide a rectal temperature of ˜37° C.) and positioned prone in the scanner. [^18F]FCH or [^18F]D4-FCH (2.96-3.7 MBq) was injected via the tail vein cannula and scanning commenced. Dynamic scans were acquired in list mode format over a 60 min period as reported previously (Leyton, J., et al., Cancer Research 2006; 66(15):7621-9). The acquired data were sorted into 0.5 mm sinogram bins and 19 time frames (0.5×0.5×0.5 mm voxels; 4×15, 4×60, and 11×300 s) for image reconstruction, which was done by filtered back-projection using a two-dimensional Hamming filter (cutoff 0.6). The image data sets were visualized using the Analyze software (version 6.0; Biomedical Imaging Resource, Mayo Clinic). Cumulative images of 30 to 60 min dynamic data were used for visualization of radiotracer uptake and to draw regions of interest. Regions of interest were defined manually on five adjacent tumor regions (each 0.5 mm thickness). Dynamic data from these slices were averaged for each tissue (liver, kidney, muscle, urine, and tumor) and at each of the 19 time points to obtain time versus radioactivity curves. Corresponding whole body time versus radioactivity curves representing injected radioactivity were obtained by adding together radioactivity in all 200×160×160 reconstructed voxels. Tumor radioactivity was normalized to whole-body radioactivity and expressed as percent injected dose per voxel (% ID/vox). The normalized uptake of radiotracer at 60 min (% ID/vox60) was used for subsequent comparisons. The average of the normalized maximum voxel intensity across five slices of tumor % IDvox60max was also use for comparison to account for tumor heterogeneity and existence of necrotic regions in tumor. The area under the curve was calculated as the integral of % ID/vox from 0 to 60 min.

[4] = test system: human melanoma SKMEL-28 xenografts; settings: mouse, in vivo, 60 min
Experimental: as §2

[5] = C3H-Hej, mouse, in vivo, iv, 15 min

Row | SMILES | CHKA protein expression in vivo (choline kinase A (CHKA)) | CHKA expression in vitro (CHKA) | [18F]D4-FCH-phosphocholine formation (HCT116 cells) | tumor [18F]D4-FCH uptake / retention (HCT116 tumors; HCT116 tumors, 10 days of 25 mg/kg daily vs vehicle, 25 mg/kg) | reduction in tumor size (HCT116 tumors; day 10 compared to the pretreatment group, 25 mg/kg daily, oral) | unknown metabolite (possibly the aldehyde intermediate) in liver [1] | kidney radioactivity as phosphocholine ([1]; 30 min) | kidney radioactivity in the form of betaine ([1]; 30 min) | unknown metabolite in kidney ([1]; 30 min) | form of radioactivity in tumors ([1]; iv, 30 min) | parent compound still present [2] | parent radiotracer present (choline oxidase) | Bladder (urine) % ID/vox60 [3] | Kidney % ID/vox60 [3] | Liver radioactivity % ID/vox60 [3] | Tumor % ID/vox60 [4] | conversion to betaine metabolite in plasma [5]
1 | O=C(NOC[C@H](O)CO)c1ccc(F)c(F)c1Nc1ccc(I)cc1F [PD0325901] | significant reduction | reduction of CHKA expression | significantly inhibited | significant reduction in tumor [^18F]D4-FCH uptake; also recorded: marked reduction in radiotracer retention | 12.2% |  |  |  |  |  |  |  |  |  |  |  | 
2 | C[N+](C)(C[18F])CCO [[^18F]FCH, [^18F]Fluoromethylcholine, reference compound] |  |  |  |  |  | not found | 31.8±9.8% | 53.5±5.3% | 3.3±0.6% | significant levels of [^18F]FCH-betaine | less than 40% | 11±8% | 6.70±0.71 % ID/vox | 15.97±4.65 % ID/vox | 18.75±4.28 % ID/vox | 5.50±0.49 % ID/vox | ~80%
